{"source": "patent US20220378704A1", "about": "“PROCESS FOR THE PREPARATION OF A NANOPARTICULATE ACTIVE INGREDIENT” (Bayer Aktiengesellschaft, priority 2019, published 2022)", "origin": "cited, not measured here", "key": {"[1]": {"conditions": "within 5 min"}}}
{"compound": "C#C[C@]1(O)CC[C@H]2[C@@H]3CCC4=Cc5oncc5C[C@]4(C)[C@H]3CC[C@@]21C", "note": "[raw danazol particles, danazol]", "values": [{"measurement": "dissolution rate", "setting": "[1]", "result": 35, "unit": "%"}, {"measurement": "specific surface area", "setting": "before / after LASP process in the MCR", "result": 0.66, "unit": "m^2/g"}, {"measurement": "mean particle size", "setting": "before LASP process", "result": 55, "unit": "μm"}]}
